These results are taken from patent publication US8946243B2, “Compounds and methods for the treatment of viral infection” (The United States of America, as represented by the …, priority 2008, dated 2015).

One data set concerns HIV-1 LAI.04. Nature of the data set: Anti-HIV activity in MT4 cell cultures: p24 production. In kind it is cell-based. Particulars: for inhibition of HIV-1 (in words): MT-4 cell line, concentration of 5 μM. How it is done: (§1) Human T-lymphocyte MT-4 or CEM cells were obtained from the American Type Culture Collection (Manassas, Va.) and cultivated in RPMI 1640 medium supplemented with 10% fetal bovine serum 2 mM L-glutamine and 0.075 M NaHCO3.
(§2) HIV-1(IIIB) was provided by Dr. R. C. Gallo and Dr. M. Popovic (at that time at the NCI, National Institutes of Health, Bethesda). A closely related HIV-1 variant (LAI.04) was obtained from the NIH AIDS Reagent Program.
Briefly, CEM cells (4.5×10^5 cells per ml) were suspended in fresh culture medium and infected with HIV-1 at 100 CCID50 (cell culture infective dose-50) per ml of cell suspension. Then 100 μl of the infected cell suspension were transferred to microplate wells, mixed with 100 μl of the appropriate dilutions of the test compounds, and further incubated at 37° C. After 4-5 days, giant cell formation was recorded microscopically in the CEM cell cultures. […] MT4 cells (1×10^4 cells per ml) were suspended in fresh culture medium and infected with 10 uL of HIV-1LAI.04 viral stock at 260 CCID50 (cell culture infective dose-50) per ml of cell suspension. Then infected cell suspensions were transferred to microplate wells, mixed with 1 mL of the appropriate dilutions of the test compounds, and further incubated at 37° C. […]

The target in the next data set is HIV-1 RT (Human immunodeficiency virus type 1 group M subtype B, UniProt P03366). Description: Inhibition of HIV-1 RT. The data set is classed as biochemical.
The nature of data set [1]: Cytostatic activity in CEM cell cultures. In kind it is cell-based. The following applies: human, CEM T-lymphocyte cells. How it is done: as §1
A further data set concerns HIV-2(ROD). Description: Anti-HIV activity in CEM cell cultures: prevention of giant cell (syncytium) formation, HIV-2(ROD). In kind it is cell-based. Particulars: Human immunodeficiency virus 2, CCRF-CEM, read-out: EC50 HIV-2(ROD).
In the next data set the test system is HIV-1(IIIB). Nature of the data set: Anti-HIV activity in CEM cell cultures: prevention of giant cell (syncytium) formation, HIV-1(IIIB). The data set is classed as cell-based. Particulars: concentration preventing syncytium formation by 50%, 4-5 days. The protocol:
as §1, §2
Briefly, CEM cells (4.5×10^5 cells per ml) were suspended in fresh culture medium and infected with HIV-1 at 100 CCID50 (cell culture infective dose-50) per ml of cell suspension. Then 100 μl of the infected cell suspension were transferred to microplate wells, mixed with 100 μl of the appropriate dilutions of the test compounds, and further incubated at 37° C. After 4-5 days, giant cell formation was recorded microscopically in the CEM cell cultures. […] MT4 cells (1×10^4 cells per ml) were suspended in fresh culture medium and infected with 10 uL of HIV-1LAI.04 viral stock at 260 CCID50 (cell culture infective dose-50) per ml of cell suspension. Then infected cell suspensions were transferred to microplate wells, mixed with 1 mL of the appropriate dilutions of the test compounds, and further incubated at 37° C. After 7 days, p24 production was measured in the MT4 cell cultures supernatant.

For another data set, the system named is HIV-1 X4 LAI.04. Nature of the data set: HIV-1 replication in ex vivo human tonsillar tissue culture: p24gag in culture medium. In kind it is cell-based. Particulars: for EC50 / EC90: Human immunodeficiency virus 1; for EC50 / EC90 / EC75: ex vivo human tonsillar tissue, X4 LAI.04, p24gag. The protocol:
Tonsillar tissues from routine surgery were obtained from the Children's National Medical Center, Washington D.C. Tissues were dissected into 2-mm^3 blocks and placed onto collagen sponge gels at the air-liquid interface. Tissue blocks were cultured in RPMI 1640 medium containing 15% heat-inactivated fetal calf serum, nonessential amino acids (1 mM), sodium pyruvate (1 mM), amphotericin B (2.5 μg/mL) and gentamicin (50 μg/mL). The culture medium was changed every 3 days and prodrugs were replenished. Blocks of human lymphoid tonsillar tissues were inoculated ex vivo with X4LAI.04 and treated with increasing concentration of each prodrug (0,1; 0.5; 1; 5 and 10 μM). HIV-1 replication was monitored by measuring p24gag accumulated in culture media over 3 day periods. For each donor, HIV-1 replication in 9 treated blocks was compared with that in 9 untreated blocks from the same donor.

Setting [2] is: MT4 cell cultures, HIV-1 LAI.04, 50% suppression of p24 production, read-out: EC50.
Where [3] appears, read: CEM cell cultures, 50% effective concentration.
Setting [4] is: Human immunodeficiency virus 1, IIIB, CCRF-CEM, read-out: EC50 HIV-1(IIIB), CEM cell cultures.
Setting [5] is: Human immunodeficiency virus 1, MT4.

Where two headings read alike, the source gives them in different places.

Usually EC50 stands for the concentration giving half of the maximal effect. `Nc1nc2c(ncn2COCCOP(=O)(O)O)c(=O)[nH]1` [ACV monophosphate, reference compound]: the EC50 in the data set with HIV-1 LAI.04 (setting [2]) turned out to be 100 µM. Further, the “inhibition of HIV-1 (in words)” value in the data set with HIV-1 LAI.04 is listed as “inefficient”.

For the molecule `Nc1nc2c(ncn2COCCOP(=O)(O)OP(=O)(O)OP(=O)(O)O)c(=O)[nH]1` [ACV triphosphate, reference compound], the “inhibition of HIV-1 RT (in words)” value against HIV-1 RT was “potent inhibitor”. The EC50 with HIV-1 LAI.04 (setting [2]) is 50 µM.

Usually CC50 stands for the concentration giving 50% cytotoxicity. Low readings indicate greater toxicity to the cells, high ones lower toxicity to the cells. Take `Nc1nc2c(ncn2COCCO)c(=O)[nH]1` [ACV, Acyclovir, reference compound]: in the data set on HIV-1 LAI.04, the “inhibition of HIV-1 (in words)” value is “inefficient”. In the data set on HIV-1 LAI.04 (MT-4 cells, at low concentrations), the “effect on replication of HIV-1 (in words)” value is listed as “does not affect HIV-1 replication at all”. In addition, the CC50 in data set [1] is greater than 250 µM. Also, the EC50 with HIV-2(ROD) (setting [3]) is greater than 250 µM.

Usually EC90 stands for the concentration at which the effect reaches the 90% level. A low value points to greater potency. The EC75 is the concentration at which the effect reaches the 75% level. Higher therefore signals a need for much substance. As to `COC(=O)[C@H](C)NP(=O)(OCCOCn1cnc2c(=O)[nH]c(N)nc21)Oc1ccccc1` (stereo partly drawn) [Cf 1811, acyclovir-[1-phenyl-(methoxy-L-alaninyl)]phosphate], the EC50 in the data set on HIV-1(IIIB) (setting [4]) was 16 µM; in the data set with HIV-1 LAI.04 (setting [5]), 15 µM; with HIV-1 X4 LAI.04, less than 0.1 µM; in the data set on HIV-2(ROD), 26 µM. The molecule further displayed an EC90 with HIV-1 X4 LAI.04 of 0.5 µM. In the data set with HIV-1 X4 LAI.04, this molecule gave an EC75 of 0.1 µM. The molecule further had a CC50 in data set [1] of 67 µM.

Consider `C[C@H](NP(=O)(OCCOCn1cnc2c(=O)[nH]c(N)nc21)Oc1cccc2ccccc12)C(=O)OCc1ccccc1` (stereo partly drawn) [Cf 2574, acyclovir-[1-naphthyl(benzoxy-L-alaninyl)]phosphate], for which the EC50 was 17.5 µM with HIV-1(IIIB) (setting [4]), 0.8 µM in the data set on HIV-1 LAI.04 (setting [5]), less than 0.1 µM in the data set with HIV-1 X4 LAI.04 and 7.3 µM in the data set on HIV-2(ROD). In addition, the 90% effect level in the data set with HIV-1 X4 LAI.04 (EC90) was put at 0.9 µM. In the data set on HIV-1 X4 LAI.04, this molecule showed an EC75 of 0.62 µM. In data set [1], the CC50 came out at 17 µM.

Consider `CCCOC(=O)[C@H](C)NP(=O)(OCCOCn1cnc2c(=O)[nH]c(N)nc21)Oc1cccc2ccccc12` (stereo partly drawn) [Cf 2629, acyclovir-[1-naphthyl(n-propoxy-L-alaninyl)]phosphate], for which the EC50 in the data set with HIV-1(IIIB) (setting [4]) was 3.2 µM; in the data set on HIV-1(IIIB) (read-out: EC50 HIV-1(IIIB), CEM cell cultures) it was 3.4 µM; in the data set on HIV-1 LAI.04 (setting [5]), 10 µM; with HIV-1 X4 LAI.04, less than 0.1 µM; in the data set with HIV-2(ROD) it was 7.4 µM. The molecule further displayed an EC90 in the data set on HIV-1 X4 LAI.04 of 1.5 µM. In addition, in the data set on HIV-1 X4 LAI.04, the EC75 was found to be 0.4 µM. Further, in data set [1], the CC50 amounted to 22 µM.

Regarding `C[C@H](NP(=O)(OCCOCn1cnc2c(=O)[nH]c(N)nc21)Oc1ccccc1)C(=O)OCc1ccccc1` (stereo partly drawn) [Cf 2648, acyclovir-[1-phenyl-(benzoxy-L-alaninyl)]phosphate], the 50% effective concentration (EC50) in the data set with HIV-1(IIIB) (setting [4]) was 3.2 µM; in the data set with HIV-1 LAI.04 (setting [5]), 8 µM; with HIV-1 X4 LAI.04, less than 0.1 µM; in the data set on HIV-2(ROD) it was 8.8 µM. This molecule also yielded an EC90 with HIV-1 X4 LAI.04 of 0.55 µM. In the data set with HIV-1 X4 LAI.04, the EC75 is less than 0.1 µM. The molecule further showed a CC50 in data set [1] of 33 µM.

By inhibition is commonly meant how much of the control response was suppressed. Take `COC(=O)[C@H](C)NP(=O)(OCCOCn1cnc2c(=O)[nH]c(N)nc21)Oc1cccc2ccccc12` (stereo partly drawn) [Cf 2649, acyclovir-[1-naphthyl(methoxy-L-alaninyl)]phosphate]: the EC50 was 9.7 µM in the data set on HIV-1(IIIB) (setting [4]), 3 µM with HIV-1 LAI.04 (setting [5]), less than 0.1 µM in the data set with HIV-1 X4 LAI.04 and 9.3 µM in the data set with HIV-2(ROD). In addition, the inhibition at 5 µM in the data set on HIV-1 LAI.04 (Human immunodeficiency virus 1, MT4, read-out: inhibition of replication of HIV-1) turned out to be 99%. In the data set with HIV-1 LAI.04 (MT4 cells, LAI.04, day 3 post-infection, p24 ELISA), the “dose-dependency of HIV suppression (FIG. 2, in words)” value is “suppression of HIV replication by the drug in dose-dependent manner”. Further, in the data set with HIV-1 X4 LAI.04, the 90% effect level (EC90) was put at 0.1 µM. In the data set with HIV-1 X4 LAI.04, this molecule returned an EC75 of less than 0.1 µM. Besides, the “suppression of HIV-1 replication, time course (FIG. 1, in words)” value in the data set on HIV-1 X4 LAI.04 (human tonsillar tissue, 27 blocks, LAI.04, drug replenished every three days, p24 ELISA) is “efficient suppression of HIV replication”. In data set [1], this molecule displayed a CC50 of 57 µM.

As for `Nc1nc2c(ncn2COCCOP(=O)(N[C@@H](Cc2ccccc2)C(=O)OCc2ccccc2)Oc2ccccc2)c(=O)[nH]1` (stereo partly drawn) [Cf 2650, acyclovir-[1-phenyl-(benzoxy-L-phenylalaninyl)]phosphate], the EC50 with HIV-1(IIIB) (setting [4]) was 24 µM; in the data set on HIV-1 LAI.04 (setting [5]), 16 µM; in the data set with HIV-1 X4 LAI.04, less than 0.1 µM; in the data set with HIV-2(ROD), 21 µM. The molecule also returned an EC90 in the data set on HIV-1 X4 LAI.04 of 3 µM. The EC75 in the data set with HIV-1 X4 LAI.04 turned out to be 1.5 µM. This molecule gave a CC50 in data set [1] of 42 µM.

Regarding `Nc1nc(O)c2ncn(COC(CO)CO)c2n1` [GCV, Ganciclovir, reference compound], the EC50 with HIV-1(IIIB) (Human immunodeficiency virus 1, IIIB, CCRF-CEM, CEM cell cultures, read-out: EC50 HIV-1(IIIB)) is greater than 250 µM; with HIV-2(ROD) (setting [3]), greater than 250 µM. The same molecule yielded a CC50 in data set [1] greater than 250 µM.
